The results in this text go back to PubChem BioAssay AID1259407 (Chemical Carcinogenesis Research Information System (CCRIS), 2018).

This series relates to CCRIS mutagenicity, Ames/micronucleus/aberration tests. Kind of series: CCRIS mutagenicity studies. The source says: The CCRIS database contains chemical records with carcinogenicity, mutagenicity, tumor promotion, and tumor inhibition test results. It was developed by the National Cancer Institute (NCI). Data are derived from studies cited in primary journals, current awareness tools, NCI reports, and other sources. Test results have been reviewed by experts in carcinogenesis and mutagenesis.
CCRIS provides historical information from the years 1985 - 2011. It is no longer updated.
This is an archive assay for CCRIS mutagenicity studies.

Where [1] appears, read: Test System: AMES SALMONELLA TYPHIMURIUM, Strain/Indicator: TA100, Metabolic Activation: NONE, Method: PREINCUBATION

Calls of active or inactive are those of the source. No rule for the calls is given here.

Turning to `N#C/C=C/C#N`, the mutagenic call reads like this: (End Point: IN VITRO CHROMOSOMAL ABERRATIONS, Test System: CHO-LB CELLS, Metabolic Activation: NONE) “active; positive”; (End Point: IN VITRO CHROMOSOMAL ABERRATIONS, Test System: CHO-LB CELLS, Metabolic Activation: RAT, LIVER, S-9, AROCLOR 1254) “inactive; negative”; (Test System: AMES SALMONELLA TYPHIMURIUM, Strain/Indicator: TA97, Metabolic Activation: HAMSTER, LIVER, S-9, AROCLOR 1254 (10%), Method: PREINCUBATION) “inactive; negative”; (Test System: AMES SALMONELLA TYPHIMURIUM, Strain/Indicator: TA97, Metabolic Activation: HAMSTER, LIVER, S-9, AROCLOR 1254 (30%), Method: PREINCUBATION) “inactive; negative”; (Test System: AMES SALMONELLA TYPHIMURIUM, Strain/Indicator: TA97, Metabolic Activation: NONE, Method: PREINCUBATION) “inactive; negative”; (Test System: AMES SALMONELLA TYPHIMURIUM, Strain/Indicator: TA97, Metabolic Activation: RAT, LIVER, S-9, AROCLOR 1254 (10 OR 30%), Method: PREINCUBATION) “inactive; negative”. The mutagenic call was “inactive; negative” (Test System: AMES SALMONELLA TYPHIMURIUM, Strain/Indicator: TA98, Metabolic Activation: HAMSTER, LIVER, S-9, AROCLOR 1254 (10%), Method: PREINCUBATION); “inactive; negative” (Test System: AMES SALMONELLA TYPHIMURIUM, Strain/Indicator: TA98, Metabolic Activation: HAMSTER, LIVER, S-9, AROCLOR 1254 (30%), Method: PREINCUBATION); “inactive; negative” (Test System: AMES SALMONELLA TYPHIMURIUM, Strain/Indicator: TA98, Metabolic Activation: NONE, Method: PREINCUBATION); “inactive; negative” (Test System: AMES SALMONELLA TYPHIMURIUM, Strain/Indicator: TA98, Metabolic Activation: RAT, LIVER, S-9, AROCLOR 1254 (10%), Method: PREINCUBATION); “inactive; negative” (Test System: AMES SALMONELLA TYPHIMURIUM, Strain/Indicator: TA98, Metabolic Activation: RAT, LIVER, S-9, AROCLOR 1254 (30%), Method: PREINCUBATION); “inactive; negative” (Test System: AMES SALMONELLA TYPHIMURIUM, Strain/Indicator: TA98, Metabolic Activation: RAT, LIVER, S-9, FUMARONITRILE (AUTOINDUCTION), Method: PREINCUBATION). Also, the mutagenic call is “inactive; negative” (Test System: AMES SALMONELLA TYPHIMURIUM, Strain/Indicator: TA98, Metabolic Activation: RAT, LIVER, S-9, PHENOBARBITAL, Method: PREINCUBATION); “inactive; negative” (Test System: AMES SALMONELLA TYPHIMURIUM, Strain/Indicator: TA100, Metabolic Activation: HAMSTER, LIVER, S-9, AROCLOR 1254 (10%), Method: PREINCUBATION); “inactive; negative” (Test System: AMES SALMONELLA TYPHIMURIUM, Strain/Indicator: TA100, Metabolic Activation: HAMSTER, LIVER, S-9, AROCLOR 1254 (30%), Method: PREINCUBATION); “inactive; negative” under setting [1]; “inactive; negative” (Test System: AMES SALMONELLA TYPHIMURIUM, Strain/Indicator: TA100, Metabolic Activation: RAT, LIVER, S-9, AROCLOR 1254 (10%), Method: PREINCUBATION); “inactive; negative” (Test System: AMES SALMONELLA TYPHIMURIUM, Strain/Indicator: TA100, Metabolic Activation: RAT, LIVER, S-9, AROCLOR 1254 (30%), Method: PREINCUBATION). Moreover, the mutagenic call runs as follows: (Test System: AMES SALMONELLA TYPHIMURIUM, Strain/Indicator: TA100, Metabolic Activation: RAT, LIVER, S-9, FUMARONITRILE (AUTOINDUCTION), Method: PREINCUBATION) “inactive; negative”; (Test System: AMES SALMONELLA TYPHIMURIUM, Strain/Indicator: TA100, Metabolic Activation: RAT, LIVER, S-9, PHENOBARBITAL, Method: PREINCUBATION) “inactive; negative”; (Test System: AMES SALMONELLA TYPHIMURIUM, Strain/Indicator: TA1535, Metabolic Activation: HAMSTER, LIVER, S-9, AROCLOR 1254 (10%), Method: PREINCUBATION) “inactive; negative”; (Test System: AMES SALMONELLA TYPHIMURIUM, Strain/Indicator: TA1535, Metabolic Activation: HAMSTER, LIVER, S-9, AROCLOR 1254 (30%), Method: PREINCUBATION) “inactive; negative”; (Test System: AMES SALMONELLA TYPHIMURIUM, Strain/Indicator: TA1535, Metabolic Activation: NONE, Method: PREINCUBATION) “inactive; negative”; (Test System: AMES SALMONELLA TYPHIMURIUM, Strain/Indicator: TA1535, Metabolic Activation: RAT, LIVER, S-9, AROCLOR 1254 (10 OR 30%), Method: PREINCUBATION) “inactive; negative”.

Turning to `CCN(CC)CCNC(=O)c1ccc(N)cc1`, the mutagenic call is, setting by setting: (Test System: CHINESE HAMSTER V-79, Strain/Indicator: V-79 (HGPRT)/6-THIOGUANINE, Metabolic Activation: NONE) “inactive; negative”; (Test System: UDS HUMAN HEPATOCYTES, Strain/Indicator: THY INCORP, Metabolic Activation: NONE, Method: AUTORADIOGRAPHY) “inactive; negative”; (Test System: UDS RAT HEPATOCYTES, Strain/Indicator: THY INCORP, Metabolic Activation: NONE, Method: AUTORADIOGRAPHY) “inactive; negative”.

Turning to `OC[C@H](Cc1cccc(O)c1)[C@H](CO)Cc1cccc(O)c1`, the mutagenic call (Test System: CHINESE HAMSTER V79 CELLS, Strain/Indicator: V79 CELLS (HPRT)/6-THIOGUANINE, Metabolic Activation: NONE, Method: SUSPENSION/PLATE) is “inactive; negative” and the mutagenic call (Test System: CHINESE HAMSTER V-79, Strain/Indicator: V-79 (HPRT)/6-THIOGUANINE, Metabolic Activation: NONE) was “inactive; negative”.

As to `O=c1c(O)c(-c2ccccc2)oc2cc(O)cc(O)c12`, the mutagenic call runs as follows: under setting [1], “inactive; negative”; (Test System: AMES SALMONELLA TYPHIMURIUM, Strain/Indicator: TA100, Metabolic Activation: RAT LIVER S-9, AROCLOR 1254, Method: PREINCUBATION) “inactive; negative”.

For the compound `OCC(CO)NC1CC(O)(CO)C(O)C(O)C1O` (stereo unspecified), the mutagenic call by setting is: (Test System: AMES SALMONELLA TYPHIMURIUM, Strain/Indicator: TA98, Metabolic Activation: NONE) “inactive; negative”; (Test System: AMES SALMONELLA TYPHIMURIUM, Strain/Indicator: TA98, Metabolic Activation: RAT, LIVER, S-9, SODIUM PHENOBARBITAL AND 5,6-BENZOFLAVONE) “inactive; negative”; (Test System: AMES SALMONELLA TYPHIMURIUM, Strain/Indicator: TA100, Metabolic Activation: NONE) “inactive; negative”; (Test System: AMES SALMONELLA TYPHIMURIUM, Strain/Indicator: TA100, Metabolic Activation: RAT, LIVER, S-9, SODIUM PHENOBARBITAL AND 5,6-BENZOFLAVONE) “inactive; negative”; (Test System: AMES SALMONELLA TYPHIMURIUM, Strain/Indicator: TA1535, Metabolic Activation: NONE) “inactive; negative”; (Test System: AMES SALMONELLA TYPHIMURIUM, Strain/Indicator: TA1535, Metabolic Activation: RAT, LIVER, S-9, SODIUM PHENOBARBITAL AND 5,6-BENZOFLAVONE) “inactive; negative”. Further, the mutagenic call is, setting by setting: (Test System: AMES SALMONELLA TYPHIMURIUM, Strain/Indicator: TA1537, Metabolic Activation: NONE) “inactive; negative”; (Test System: AMES SALMONELLA TYPHIMURIUM, Strain/Indicator: TA1537, Metabolic Activation: RAT, LIVER, S-9, SODIUM PHENOBARBITAL AND 5,6-BENZOFLAVONE) “inactive; negative”; (Test System: E. COLI, Strain/Indicator: WP2 UVRA, Metabolic Activation: NONE) “inactive; negative”; (Test System: E. COLI, Strain/Indicator: WP2 UVRA, Metabolic Activation: RAT, LIVER, S-9, SODIUM PHENOBARBITAL AND 5,6-BENZOFLAVONE) “inactive; negative”.
